In general, IC50 refers to the midpoint of a concentration-inhibition curve.

T1 sequence (Q9UM07 2-663): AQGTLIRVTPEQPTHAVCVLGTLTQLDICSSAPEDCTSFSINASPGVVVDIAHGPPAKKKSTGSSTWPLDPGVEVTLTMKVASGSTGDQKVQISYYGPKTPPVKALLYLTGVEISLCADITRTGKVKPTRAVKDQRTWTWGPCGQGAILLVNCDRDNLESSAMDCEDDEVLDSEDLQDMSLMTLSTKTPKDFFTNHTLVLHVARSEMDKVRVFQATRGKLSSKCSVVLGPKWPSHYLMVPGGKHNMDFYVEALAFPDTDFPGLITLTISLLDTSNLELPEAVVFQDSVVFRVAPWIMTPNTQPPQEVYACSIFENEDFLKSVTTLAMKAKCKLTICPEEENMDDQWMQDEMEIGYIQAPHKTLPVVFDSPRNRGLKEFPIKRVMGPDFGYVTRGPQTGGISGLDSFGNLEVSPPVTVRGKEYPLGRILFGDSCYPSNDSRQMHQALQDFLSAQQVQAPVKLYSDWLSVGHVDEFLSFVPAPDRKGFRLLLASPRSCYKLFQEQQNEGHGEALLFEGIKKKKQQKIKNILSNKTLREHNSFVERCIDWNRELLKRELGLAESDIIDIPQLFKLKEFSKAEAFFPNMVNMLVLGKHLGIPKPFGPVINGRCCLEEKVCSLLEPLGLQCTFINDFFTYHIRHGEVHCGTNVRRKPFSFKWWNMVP

This test has as its target T1, human PAD4 (Homo sapiens, UniProt Q9UM07).
T1 construct: human PAD4 (NM_012387), A2-P663, was PCR amplified; His-SUMO (N, cleaved yes); made in house; host or cells: E. coli BL21(DE3)
The test can be described thus: In vitro PAD4 BAEE biochemical assay. Conditions: BAEE substrate 3 mM, 5 nM PAD4, 2 mM calcium chloride; geometric mean of multiple experiments. A digest of the protocol: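 Recombinant PAD4 (5 nM final) with 2 mM CaCl2 was preincubated with compound for 30 min at 25 °C in MOPS pH 7.6 buffer with DTT, then reacted with 3 mM BAEE for 2 h at 25 °C. Released ammonia was detected fluorimetrically with o-phthalaldehyde/DTT; IC50 from four-parameter fit, geometric mean of experiments.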
Take `COc1cc(C(=O)N[C@@H]2CCCNC2)cc2nc(-c3cc4ccc5nc4n3CCCCCCC(C)(C)C(=O)N[C@@H]5C)n(C)c12` [Example 70, 7-methoxy-1-methyl-~{N}-[(3~{R})-3-piperidyl]-2-[(11~{R})-8,8,11-trimethyl-9-oxo-1,10,19-triazatricyclo[10.5.2.0^{15,18}]nonadeca-12(19),13,15(18),16-tetraen-17-yl]benzimidazole-5-carboxamide]: the IC50 stood at 137 nM. For `COC(=O)[C@H]1CC[C@@H](NC(=O)c2cc(OC)c3c(c2)nc(-c2cc4ccc5nc4n2CCCCCCC(C)(C)C(=O)N[C@@H]5C)n3C)CN1` [Example 71, methyl (2~{R},5~{R})-5-[[7-methoxy-1-methyl-2-[(11~{R})-8,8,11-trimethyl-9-oxo-1,10,19-triazatricyclo[10.5.2.0^{15,18}]nonadeca-12(19),13,15(18),16-tetraen-17-yl]benzimidazole-5-carbonyl]amino]piperidine-2-carboxylate], the concentration for half-maximal inhibition (IC50) was 560 nM. Then `COc1cc(C(=O)N[C@@H]2CC[C@H](C)NC2)cc2nc(-c3cc4ccc5nc4n3CCCCCCC3(CC3)C(=O)N[C@@H]5C)n(C)c12` [Example 72, 7-methoxy-1-methyl-2-[(11~{R})-11-methyl-9-oxo-spiro[1,10,19-triazatricyclo[10.5.2.0^{15,18}]nonadeca-12(19),13,15(18),16-tetraene-8,1′-cyclopropane]-17-yl]-~{N}-[(3~{R},6~{S})-6-methyl-3-piperidyl]benzimidazole-5-carboxamide], with 308 nM; and `COc1cc(C(=O)N[C@@H]2CC[C@H](C)NC2)cc2nc(-c3cc4ccc5nc4n3CCCCCCC(C)(C)C(=O)N[C@@H]5C)n(C)c12` [Example 73, 7-methoxy-1-methyl-~{N}-[(3~{R},6~{S})-6-methyl-3-piperidyl]-2-[(11~{R})-8,8,11-trimethyl-9-oxo-1,10,19-triazatricyclo[10.5.2.0^{15,18}]nonadeca-12(19),13,15(18),16-tetraen-17-yl]benzimidazole-5-carboxamide], with 125 nM; and `COc1cc(C(=O)N[C@H]2CNCC[C@@H]2F)cc2nc(-c3cc4ccc5nc4n3CCCCCCC3(CC3)C(=O)N[C@@H]5C)n(C)c12` [Example 74, ~{N}-[(3~{S},4~{S})-4-fluoro-3-piperidyl]-7-methoxy-1-methyl-2-[(11~{R})-11-methyl-9-oxo-spiro[1,10,19-triazatricyclo[10.5.2.0^{15,18}]nonadeca-12(19),13,15(18),16-tetraene-8,1′-cyclopropane]-17-yl]benzimidazole-5-carboxamide], with 221 nM. The figure for `COc1cc(C(=O)N[C@H]2CNCC[C@@H]2F)cc2nc(-c3cc4ccc5nc4n3CCCCCCC(C)(C)C(=O)N[C@@H]5C)n(C)c12` [Example 75, ~{N}-[(3~{S},4~{S})-4-fluoro-3-piperidyl]-7-methoxy-1-methyl-2-[(11~{R})-8,8,11-trimethyl-9-oxo-1,10,19-triazatricyclo[10.5.2.0^{15,18}]nonadeca-12(19),13,15(18),16-tetraen-17-yl]benzimidazole-5-carboxamide] is 103 nM. Consider `COc1cc(C(=O)N[C@H]2CNCC[C@@H]2F)cc2nc(-c3cc4ccc5nc4n3CCCCCC(C)(C)C(=O)N[C@@H]5C)n(C)c12` [Example 76, ~{N}-[(3~{S),4~{S})-4-fluoro-3-piperidyl]-7-methoxy-1-methyl-2-[(10~{R})-7,7,10-trimethyl-8-oxo-1,9,18-triazatricyclo[9.5.2.0^{14,17}]octadeca-11(18),12,14(17),15-tetraen-16-yl]benzimidazole-5-carboxamide], for which the IC50 came to 87 nM.

`COc1cc(C(=O)N[C@@H]2CCCCNC2)cc2nc(-c3cc4ccc5nc4n3CCCCCCC3(CC3)C(=O)N[C@@H]5C)n(C)c12` [Example 77, ~{N}-[(3~{R})-azepan-3-yl]-7-methoxy-1-methyl-2-[(11~{R})-11-methyl-9-oxo-spiro[1,10,19-triazatricyclo[10.5.2.0^{15,18}]nonadeca-12(19),13,15(18),16-tetraene-8,1′-cyclopropane]-17-yl]benzimidazole-5-carboxamide]: the IC50 stood at 367 nM.

With `COc1cc(C(=O)N[C@@H]2CCCCNC2)cc2nc(-c3cc4ccc5nc4n3CCCCCCC(C)(C)C(=O)N[C@@H]5C)n(C)c12` [Example 78, ~{N}-[(3~{R})-azepan-3-yl]-7-methoxy-1-methyl-2-[(11~{R})-8,8,11-trimethyl-9-oxo-1,10,19-triazatricyclo[10.5.2.0^{15,18}]nonadeca-12(19),13,15(18),16-tetraen-17-yl]benzimidazole-5-carboxamide], the IC50 turned out to be 80 nM.

As to `COc1cc(C(=O)N2CC[C@H]3CCN[C@H]3C2)cc2nc(-c3cc4ccc5nc4n3CCCCCCC(C)(C)C(=O)N[C@@H]5C)n(C)c12` [Example 79, (11~{R})-17-[5-[(3~{a}~{R},7~{a}~{R})-1,2,3,3~{a},4,5,7,7~{a}-octahydropyrrolo[2,3-c]pyridine-6-carbonyl]-7-methoxy-1-methyl-benzimidazol-2-yl]-8,8,11-trimethyl-1,10,19-triazatricyclo[10.5.2.0^{15,18}]nonadeca-12(19),13,15(18),16-tetraen-9-one], the IC50 was found to be 76 nM.

In the case of `COc1cc(C(=O)N2C[C@H]3CCCN[C@H]3C2)cc2nc(-c3cc4ccc5nc4n3CCCCCCC(C)(C)C(=O)N[C@@H]5C)n(C)c12` [Example 80, (11~{R})-17-[5-[(4~{a}~{R},7~{a}~{R})-1,2,3,4,4~{a},5,7,7~{a}-octahydropyrrolo[3,4-b]pyridine-6-carbonyl]-7-methoxy-1-methyl-benzimidazol-2-yl]-8,8,11-trimethyl-1,10,19-triazatricyclo[10.5.2.0^{15,18}]nonadeca-12(19),13,15(18),16-tetraen-9-one], the IC50 turned out to be 255 nM. Regarding `COc1cc(C(=O)N2CC[C@@H]3CCN[C@@H]3C2)cc2nc(-c3cc4ccc5nc4n3CCCCCCC(C)(C)C(=O)N[C@@H]5C)n(C)c12` [Example 81, (11~{R})-17-[5-[(3~{a}~{S},7~{a}~{S})-1,2,3,3~{a},4,5,7,7~{a}-octahydropyrrolo[2,3-c]pyridine-6-carbonyl]-7-methoxy-1-methyl-benzimidazol-2-yl]-8,8,11-trimethyl-1,10,19-triazatricyclo[10.5.2.0^{15,18}]nonadeca-12(19),13,15(18),16-tetraen-9-one], the IC50 is 505 nM.

For `COc1cc(C(=O)N[C@H]2CNCC[C@H]2OC)cc2nc(-c3cc4ccc5nc4n3CCCCCCC(C)(C)C(=O)N[C@@H]5C)n(C)c12` [Example 82, 7-methoxy-~{N}-[(3~{S},4~{R})-4-methoxy-3-piperidyl]-1-methyl-2-[(11~{R})-8,8,11-trimethyl-9-oxo-1,10,19-triazatricyclo[10.5.2.0^{15,18}]nonadeca-12(19),13,15(18),16-tetraen-17-yl]benzimidazole-5-carboxamide], the IC50 was found to be 8110 nM. For the compound `COc1cc(C(=O)N2[C@H]3CC[C@@H]2[C@H](N)C3)cc2nc(-c3cc4ccc5nc4n3CCCCCCOc3ncccc3-5)n(C)c12` [Example 83, [(1~{R},2~{R},4~{S})-2-amino-7-azabicyclo[2.2.1]heptan-7-yl]-[7-methoxy-1-methyl-2-(8-oxa-6,15,21-triazatetracyclo[13.5.2.0^{2,7}.0^{18,22}]docosa-1(21),2,4,6,16,18(22),19-heptaen-16-yl)benzimidazol-5-yl]methanone], the IC50 stood at 204 nM. As to `COc1cc(C(=O)N2[C@H]3CC[C@@H]2[C@H](N)C3)cc2nc(-c3cc4ccc5nc4n3CCCCCCC(=O)Nc3ncccc3-5)n(C)c12` [Example 84, 17-[5-[(1~{R},2~{R},4~{S})-2-amino-7-azabicyclo[2.2.1]heptane-7-carbonyl]-7-methoxy-1-methyl-benzimidazol-2-yl]-6,8,16,22-tetrazatetracyclo[14.5.2.0^{2,7}.0^{19,23}] tricosa-1(22),2,4,6,17,19(23),20-heptaen-9-one], the half-maximal inhibitory concentration (IC50) is 89 nM.

With `COc1cc(C(=O)N2[C@H]3CC[C@@H]2[C@H](N)C3)cc2nc(-c3cc4ccc5nc4n3CCCCCCCOc3ncccc3-5)n(C)c12` [Example 85, [(1˜{R},2˜{R},4˜{S})-2-amino-7-azabicyclo[2.2.1]heptan-7-yl]-[7-methoxy-1-methyl-2-(8-oxa-6,16,22-triazatetracyclo[14.5.2.0^{2,7}.0^{19,23}]tricosa-1(22),2,4,6,17,19(23),20-heptaen-17-yl)benzimidazol-5-yl]methanone], the 50% inhibitory concentration (IC50) stood at 406 nM. The figure for `COc1cc(C(=O)N2[C@H]3CC[C@@H]2[C@H](N)C3)cc2nc(-c3cc4ccc5nc4n3CCCCCCCCOc3ncccc3-5)n(C)c12` [Example 86, [(1~{R},2~{R},4~{S})-2-amino-7-azabicyclo[2.2.1]heptan-7-yl]-[7-methoxy-1-methyl-2-(8-oxa-6,17,23-triazatetracyclo[15.5.2.0^{2,7}.0^{20,24}]tetracosa-1(23),2,4,6,18,20(24),21-heptaen-18-yl)benzimidazol-5-yl]methanone] is 643 nM. As for `COc1cc(C(=O)N2[C@H]3CC[C@@H]2[C@H](N)C3)cc2nc(-c3cc4ccc5nc4n3CCCCCCC(=O)Nc3ccccc3-5)n(C)c12` [Example 87, 17-[5-[(1~{R},2~{R},4~{S})-2-amino-7-azabicyclo[2.2.1]heptane-7-carbonyl]-7-methoxy-1-methyl-benzimidazol-2-yl]-8,16,22-triazatetracyclo[14.5.2.0^{2,7}.0^{19,23}] tricosa-1(22),2,4,6,17,19(23),20-heptaen-9-one], the IC50 amounted to 83 nM. Regarding `COc1cc(C(=O)N2[C@H]3CC[C@@H]2[C@H](N)C3)cc2nc(-c3cc4ccc5cc4n3CCCCCCC(=O)Nc3ncccc3-5)n(C)c12` [Example 88, 17-[5-[(1˜{R},2˜{R},4˜{S})-2-amino-7-azabicyclo[2.2.1]heptane-7-carbonyl]-7-methoxy-1-methyl-benzimidazol-2-yl]-6,8,16-triazatetracyclo[14.5.2.0^{2,7}.0^{19,23}]tricosa-1(22),2,4,6,17,19(23),20-heptaen-9-one], the IC50 worked out at 97 nM.

Values taken from patent US11976083B2, “Inhibitors of peptidylarginine deiminases” (Gilead Sciences, Inc., priority 2020, dated 2024).
